In US7851637B2, “Compounds and methods for inhibiting the interaction of BCL proteins with binding partners” (Infinity Pharmaceuticals, Inc., priority 2004, dated 2010):
Read-outs that look alike come from different tables or passages of the source.

Assays:
[1] = system: Human Pancreatic Cancer Cell Line Panc1; test: Cell death assay (propidium iodide/Hoechst) in Panc1 cells with or without camptothecin; assay type: cell-based; details: 72 hours, % cell death by propidium iodide/Hoechst
Method: When RL-cells are exposed to isoxazolidine compounds of the present invention, the inhibitors show a dose-dependent cell-killing in the Alamar blue cytoxicity assay with IC50 values of from about 100 μM to about 1 μM (See Examples). When Panc1 cells are exposed to the isoxazolidine compounds of the present invention in combination with camptothecin, the inhibitors show a synergistic dose-dependent cell killing in the propidium iodide exclusion cell survival assay with IC50 values of from about 100 μM to about 1 μM (See Examples).
• 1) Compounds were serially diluted in DMSO from a 9 mM stock to a final concentration of 0.004 mM in a 96 well plate. • 2) Assay plates were prepared by diluting compounds 310 fold into 150 ul of medium containing 10,000 cells/well, with or without 3 uM Camptothecin, resulting in a final DMSO concentration of 0.3% and a compound concentration range from 29 uM to […] for each compound. • 3) Assay plates were incubated at 37 C, 5% CO2 for 72 hours. • 4) After 72 hours, propidium iodide and Hoechst dye were added to each well according to manufacturer's instruction. • 5) Plates were imaged on a fluorescence microscope at wavelengths Ex560/Em650 (Propidium iodide) and Ex360/Em465 (Hoechst) • 6) MetaMorph imaging software was used to determine % cell death by dividing the number of propidium iodide stained cells (dead cells) by the number of Hoechst stained cells (all cells), multipled by 100, in each field.
Panc1 invitro cellular data is presented below for various compounds of the invention.

[2] = target: Bcl-2 (Homo sapiens, UniProt P10415); test: Bcl-2 binding affinity analysis (fluorescence polarization binding assay)
Sequence of Bcl-2 (P10415 whole entry): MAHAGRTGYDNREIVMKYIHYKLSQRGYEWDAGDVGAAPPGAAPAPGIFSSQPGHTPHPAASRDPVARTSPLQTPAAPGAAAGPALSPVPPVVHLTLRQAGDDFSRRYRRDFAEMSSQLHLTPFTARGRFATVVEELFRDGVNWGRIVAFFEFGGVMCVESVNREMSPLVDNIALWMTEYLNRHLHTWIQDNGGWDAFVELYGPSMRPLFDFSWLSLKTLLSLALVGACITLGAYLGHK
Summary of the method: (§1)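 In vitro measurement of compound binding to each protein by fluorescence polarization, described as sensitive and quantitative.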

[3] = target: Bcl-xL (Homo sapiens, UniProt Q07817); test: Bcl-xL binding affinity analysis (fluorescence polarization binding assay); parameters: scale not given here
Sequence of Bcl-xL (Q07817 whole entry): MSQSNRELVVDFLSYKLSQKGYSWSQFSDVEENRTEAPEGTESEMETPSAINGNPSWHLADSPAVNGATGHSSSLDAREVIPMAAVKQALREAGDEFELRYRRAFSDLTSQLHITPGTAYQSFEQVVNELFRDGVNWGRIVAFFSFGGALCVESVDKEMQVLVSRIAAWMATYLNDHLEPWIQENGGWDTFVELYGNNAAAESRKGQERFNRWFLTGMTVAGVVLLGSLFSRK
Summary of the method: as §1

[4] = Homo sapiens, PANC-1, without camptothecin, read-out: Panc1 − Cpt IC50
[5] = with 3 uM Camptothecin, read-out: Panc1 + Cpt IC50

| SMILES | IC50 [1, 4] [nM] | IC50 [1, 5] [nM] | Ki [2] [nM] | Bcl-XL binding affinity Ki [3] |
| --- | --- | --- | --- | --- |
| CNC(=O)c1ccccc1-c1cccc(CN2O[C@@H](CO)[C@@H]([C@H](C)O)[C@H]2C(=O)N[C@H]2C[C@H]3C[C@@H]([C@@H]2C)C3(C)C)c1 [Compound 89] | 1800 to 2500 | 1300 to 1800 | – | – |
| C[C@@H]1[C@@H](NC(=O)[C@@H]2[C@H]([C@H](C)O)[C@H](CO)ON2Cc2cccc(C#CC3(NC(=O)C4CCN(C)CC4)CCCCC3)c2)CC2C[C@@H]1C2(C)C [Compound 90] | > 2500 | 1300 to 1800 | – | – |
| COC(=O)CCNC(=O)c1cccc(-c2cccc(CN3O[C@@H](CO)[C@@H]([C@H](C)O)[C@H]3C(=O)N[C@H]3C[C@H]4C[C@@H]([C@@H]3C)C4(C)C)c2)c1 [Compound 149] | > 2500 | 1800 to 2500 | < 800 | ♯ |
| COc1ccc(COc2c(CN3O[C@@H](CO)[C@@H]([C@H](C)O)[C@H]3C(=O)N[C@H]3C[C@H]4C[C@@H]([C@@H]3C)C4(C)C)cccc2-c2ccc(C(=O)N(C)C)cc2)cc1 [Compound 166] | > 2500 | < 1300 | < 800 | ♯ |
| CC(C)CC(CN(C)C)N(Cc1cccc(CN2OC(CO)C(C(C)O)C2C(=O)NC2CC3CC(C2C)C3(C)C)c1)CC1CCCCC1 (stereo not drawn) [Compound 303] | > 2500 | > 2500 | < 800 | ♯ |
| COc1cccc(F)c1CN(Cc1cccc(CN2OC(CO)C(C(C)O)C2C(=O)NC2CC3CC(C2C)C3(C)C)c1)C(CC(C)C)CN(C)C (stereo not drawn) [Compound 305] | 1300 to 1800 | < 1300 | < 800 | ♯ |
| CC(C)C[C@@H](CN(C)C)N(Cc1cccc(CN2O[C@@H](CO)C([C@H](C)O)[C@H]2C(=O)N[C@H]2C[C@H]3C[C@@H]([C@@H]2C)C3(C)C)c1)Cc1c(O)cccc1F (stereo partly drawn) [Compound 306] | > 2500 | 1300 to 1800 | < 800 | ♯ |
| CC(C)CC(CN(C)C)N(Cc1cccc(CN2OC(CO)C(C(C)O)C2C(=O)NC2CC3CC(C2C)C3(C)C)c1)Cc1c(F)cccc1Cl (stereo not drawn) [Compound 307] | > 2500 | > 2500 | < 800 | ♯ |
| CC(C)CC(CN(C)C)N(Cc1cccc(O)c1)Cc1cccc(CN2OC(CO)C(C(C)O)C2C(=O)NC2CC3CC(C2C)C3(C)C)c1 (stereo not drawn) [Compound 310] | > 2500 | 1800 to 2500 | < 800 | ♯ |
| CC(C)C[C@@H](CN(C)C)N(Cc1cccc(CN2O[C@@H](CO)C([C@H](C)O)[C@H]2C(=O)N[C@H]2C[C@H]3C[C@@H]([C@@H]2C)C3(C)C)c1)Cc1c(Cl)cccc1Cl (stereo partly drawn) [Compound 317] | > 2500 | > 2500 | < 800 | ♯ |
| CC(C)CC(CN(C)C)N(Cc1cccc(CN2OC(CO)C(C(C)O)C2C(=O)NC2CC3CC(C2C)C3(C)C)c1)Cc1ccccc1I (stereo not drawn) [Compound 318] | > 2500 | > 2500 | < 800 | ♯ |
| COc1cccc(CN(Cc2cccc(CN3OC(CO)C(C(C)O)C3C(=O)NC3CC4CC(C3C)C4(C)C)c2)C(CC(C)C)CN(C)C)c1 (stereo not drawn) [Compound 319] | 1800 to 2500 | 1300 to 1800 | < 800 | ♯ |
| CC(O)C1C(CO)ON(Cc2cccc(CN(CCN(C)C)Cc3ccsc3)c2)C1C(=O)NC1CC2CC(C1C)C2(C)C (stereo not drawn) [Compound 347] | > 2500 | > 2500 | < 800 | ♯ |
| CC(O)C1C(CO)ON(Cc2cccc(CN(CCN(C)C)Cc3cccs3)c2)C1C(=O)NC1CC2CC(C1C)C2(C)C (stereo not drawn) [Compound 358] | > 2500 | > 2500 | < 800 | ♯ |
| CC(O)C1C(CO)ON(Cc2cccc(CN(CCN(C)C)Cc3ccc(F)cc3)c2)C1C(=O)NC1CC2CC(C1C)C2(C)C (stereo not drawn) [Compound 376] | 1800 to 2500 | 1300 to 1800 | < 800 | ♯ |
| COc1ccc(CN(CCN(C)C)Cc2cccc(CN3OC(CO)C(C(C)O)C3C(=O)NC3CC4CC(C3C)C4(C)C)c2)cc1 (stereo not drawn) [Compound 387] | > 2500 | > 2500 | < 800 | ♯ |
| C[C@@H]1[C@@H](NC(=O)[C@@H]2C([C@H](C)O)[C@H](CO)ON2Cc2cccc(CN(CCN(C)C)Cc3ccncc3)c2)C[C@H]2C[C@@H]1C2(C)C (stereo partly drawn) [Compound 389] | 1800 to 2500 | 1300 to 1800 | < 800 | ♯ |

| SMILES | IC50 [1, 4] [nM] | IC50 [1, 5] [nM] | Ki [2] [nM] | Bcl-XL binding affinity Ki [3] |
| --- | --- | --- | --- | --- |
| CCC(C)C(CN(C)C)N(Cc1cccc(CN2OC(CO)C(C(C)O)C2C(=O)NC2CC3CC(C2C)C3(C)C)c1)Cc1ccccc1Br (stereo not drawn) [Compound 416] | > 2500 | > 2500 | < 800 | ♯ |
| C[C@@H]1[C@@H](NC(=O)[C@@H]2C([C@H](C)O)[C@H](CO)ON2Cc2cccc(CN(Cc3ccccc3Br)[C@H](CN(C)C)C(C)(C)C)c2)C[C@H]2C[C@@H]1C2(C)C (stereo partly drawn) [Compound 422] | > 2500 | 1300 to 1800 | < 800 | ♯ |
| CC(O)C1C(CO)ON(Cc2cccc(CN(Cc3ccccc3)C(Cc3ccccc3)CN(C)C)c2)C1C(=O)NC1CC2CC(C1C)C2(C)C (stereo not drawn) [Compound 423] | > 2500 | > 2500 | < 800 | ♯ |
| CCN1CCCC1CN(Cc1ccccc1)Cc1cccc(CN2OC(CO)C(C(C)O)C2C(=O)NC2CC3CC(C2C)C3(C)C)c1 (stereo not drawn) [Compound 426] | > 2500 | > 2500 | < 800 | ♯ |
| CC(O)C1C(CO)ON(Cc2cccc(CN(CCN3CCCCCC3)Cc3ccccc3)c2)C1C(=O)NC1CC2CC(C1C)C2(C)C (stereo not drawn) [Compound 427] | > 2500 | > 2500 | < 800 | ♯ |
| CC(C)C[C@@H](CN(C)C)N(Cc1ccccc1)Cc1cccc(CN2O[C@@H](CO)[C@@H]([C@H](C)O)[C@H]2C(=O)NCc2ccccc2)c1 [Compound 542] | – | – | 800 to 6000 | ♯ |
| CC(C)C[C@@H](CN(C)C)N(Cc1ccccc1)Cc1cccc(CN2O[C@@H](CO)[C@@H]([C@H](C)O)[C@H]2C(=O)NCCCNC(=O)OC(C)(C)C)c1 [Compound 543] | – | – | 6000 to 50000 | ♯ |
| C[C@@H]1[C@@H](NC(=O)[C@@H]2[C@H]([C@H](C)O)[C@H](CO)ON2CCCCN(CCCc2ccccc2)CCN(C)C)C[C@H]2C[C@@H]1C2(C)C [Compound 545] | – | – | 800 to 6000 | ♯ |
| C[C@@H]1[C@@H](NC(=O)[C@@H]2[C@H]([C@H](C)O)[C@H](CO)ON2CCCCN(CCc2ccccc2)CCN(C)C)C[C@H]2C[C@@H]1C2(C)C [Compound 546] | – | – | 800 to 6000 | ♯ |
| C[C@@H]1[C@@H](NC(=O)[C@@H]2[C@H]([C@H](C)O)[C@H](CO)ON2CCCCN(CCN(C)C)Cc2ccccc2)C[C@H]2C[C@@H]1C2(C)C [Compound 547] | – | – | 800 to 6000 | ♯ |
| C[C@@H]1[C@@H](NC(=O)[C@@H]2[C@H]([C@H](C)O)[C@H](CO)ON2CCCCN(CCN(C)C)Cc2ccccc2Cl)C[C@H]2C[C@@H]1C2(C)C [Compound 549] | – | – | 800 to 6000 | ♯ |
| C[C@@H]1[C@@H](NC(=O)[C@@H]2[C@H]([C@H](C)O)[C@H](CO)ON2CCCCN(CCN(C)C)Cc2ccccc2F)C[C@H]2C[C@@H]1C2(C)C [Compound 550] | – | – | 800 to 6000 | ♯ |
| C[C@@H]1[C@@H](NC(=O)[C@@H]2[C@H]([C@H](C)O)[C@H](CO)ON2CCCCN(CCN(C)C)Cc2ccccc2-c2ccccc2)C[C@H]2C[C@@H]1C2(C)C [Compound 551] | – | – | < 800 | ♯ |
| CC(C)C[C@@H](CN(C)C)NCc1cccc(CN2O[C@@H](CO)C([C@H](C)O)[C@H]2C(=O)N[C@H]2C[C@H]3C[C@@H]([C@@H]2C)C3(C)C)c1 (stereo partly drawn) [Compound 552] | – | – | 800 to 6000 | ♯ |
| C[C@@H]1[C@@H](NC(=O)[C@@H]2[C@H]([C@H](C)O)[C@H](CO)ON2CCCCN(CCN(C)C)CC2CCCCC2)C[C@H]2C[C@@H]1C2(C)C [Compound 553] | – | – | 800 to 6000 | ♯ |
| C[C@@H]1[C@@H](NC(=O)[C@@H]2[C@H]([C@H](C)O)[C@H](CO)ON2Cc2cccc(NCCCN(C)C)c2)C[C@H]2C[C@@H]1C2(C)C [Compound 582] | – | – | < 800 | ♯ |
| C[C@@H]1[C@@H](NC(=O)[C@@H]2[C@H]([C@H](C)O)[C@H](CO)ON2Cc2cccc(N(CCCN(C)C)CCCN(C)C)c2)C[C@H]2C[C@@H]1C2(C)C [Compound 583] | – | – | < 800 | ♯ |
